Consider eleven compounds from patent US20060009431A1, “Nitrosated and nitrosylated compounds, compositions and methods use” (NitroMed, Inc., priority 2003, published 2006).

Like-named read-outs stand apart in the source and are kept apart here.

Series [1] relates to human coronary artery smooth muscle cells (CASMC). The series is described as follows: Vascular smooth muscle cell (SMC) antiproliferation assay. The note with it: viable cell count (Trypan Blue exclusion) ~68 hours after compound addition. It is filed as cell-based. The method, then:
Suppression of Proliferation of Human Coronary Artery Smooth Muscle Cells (CASMC)
Vascular Smooth Muscle Cell (SMC) Antiproliferation Assay
The cells used in this assay were human coronary artery smooth muscle cells (CASMC) supplied by Clonetics Corp. (San Diego, Calif.). They were maintained in SmGM-2 growth medium (Clonetics Corp.), which consisted of modified MCDB 131 medium supplemented with 5% (v/v) fetal bovine serum (FBS), 0.5 ng/mL human recombinant epidermal growth factor (EGF), 2 ng/mL human recombinant fibroblast growth factor (FGF), 5 μg/mL bovine insulin, 50 μg/mL gentamicin sulfate, and 50 ng/mL amphotericin B under humidified 95% air-5% CO2 at 37° C. Cells were used for experiments up to about 17 cumulative population doublings (i.e., passage 9); at this age they still stained positive for smooth muscle actin, a protein marker for smooth muscle cells.
For the SMC antiproliferation assay, the cells were seeded at 3×10^4 viable cells in 2 mL of SmGM-2 medium per well of a Corning 24 tissue culture well plate (Corning, N.Y.). Stock solutions of the test compounds were prepared just prior to addition to the cells by dissolving in DMSO at a concentration of 1000 times the highest concentration to be assayed. This stock solution was diluted, as required, with DMSO to lower concentrations. On the same day the cells were seeded, but after they had attached and spread out (about 3 hours), each test compound in varying concentrations (2 μL of the diluted stock solutions) was added to four replicate wells (n=4) for each concentration. Control cultures received 2 μL of DMSO per well (n=4). On the following morning, the cultures were examined microscopically and their condition recorded. On the third day after test compound addition (˜68 hours), the cultures were examined microscopically again and the viable cells counted with an hemacytometer following trypsinization with 0.25% trypsin-1 mM EDTA. Trypan Blue dye exclusion was used to discriminate between viable and dead cells. The results were usually presented as % of the control viable cell count (mean±SEM) and were used to determine the IC50 for the inhibition of proliferation of vascular smooth muscle cells.

Setting [2] is: n=4, read-out: IC 50 for the inhibition of proliferation of vascular smooth muscle cells, Non-nitrosated and/or Non-nitrosylated Compound.
Setting [3] is: Homo sapiens, n=4, read-out: IC 50 for the inhibition of proliferation of vascular smooth muscle cells, Nitrosated and/or Nitrosylated Compound.

`C[C@]12CC[C@@H]3c4ccc(OC(=O)CCC(=O)OCCC5(S)C6CC7CC(C6)CC5C7)cc4CC[C@H]3[C@@H]1CC[C@@H]2O` (stereo partly drawn) [Example 30, (1S,11S,14S,15S,10R)-14-Hydroxy-15-methyltetracyclo(8.7.0.0<2,7>0.0<11,15>)heptadeca-2,4,6-trien-5-yl 2-(2-sulfanyladamantan-2-yl)ethyl butane-1,4-dioate] registered a melting point of 133 to 136 °C. Also, the IC50 in series [1] (setting [2]) worked out at 4 µM.
In turn, `C[C@]12CC[C@@H]3c4ccc(OCC(=O)OCCC5(S)C6CC7CC(C6)CC5C7)cc4CC[C@H]3[C@@H]1CC[C@@H]2O` (stereo partly drawn) [Example 45, 2-(2-Sulfanyladamantan-2-yl)ethyl 2-((1S,11S,14S,15S,10R)-14-hydroxy-15-methyltetracyclo(8.7.0.0<2,7>0.0<11,15>)heptadeca-2,4,6-trien-5-yloxy)acetate] had a melting point of 78 to 80 °C. Besides, in series [1] (setting [2]), the IC50 amounted to 8 µM.
On the same counts, the results for `C[C@]12CC[C@@H]3c4ccc(OC(=O)CCC(=O)O[C@H]5CO[C@H]6[C@@H]5OC[C@H]6O)cc4CC[C@H]3[C@@H]1CC[C@@H]2O` [Example 58, (1S,11S,14S,15S,10R)-14-Hydroxy-15-Methyltetracyclo(8.7.0.0<2,7>0.0<11,15>)heptadeca-2,4,6-trien-5-yl(1S,2S,5R,6R)-6-hydroxy-4,8-dioxabicyclo(3.3.0)oct-2-yl butane-1,4-dioate] are 79 to 80 °C and 12 µM.
Compound `C[C@]12CC[C@@H]3c4ccc(OCC(=O)OCCC5(SN=O)C6CC7CC(C6)CC5C7)cc4CC[C@H]3[C@@H]1CC[C@@H]2O` (stereo partly drawn) [Example 36b, 2-(2-(Nitrosothio)adamantan-2-yl)ethyl 2-((1S,11S,14S,15S,10R)-14-hydroxy-15-methyltetracyclo(8.7.0.0<2,7>0.0<11,15>)heptadeca-2,4,6-trien-5-yloxy)acetate] yielded a melting point of 48 to 50 °C. In addition, the IC50 in series [1] (setting [3]) is 5 µM.
In the case of `C[C@]12CC[C@@H]3c4ccc(O)cc4/C(=N/OCC(=O)OCCC4(S)C5CC6CC(C5)CC4C6)C[C@H]3[C@@H]1CC[C@@H]2O` (stereo partly drawn) [Example 46, 2-(2-sulfanyladamantan-2-yl)ethyl 2-(((1S,11S,14S,15S,10R)-5,14-dihydroxy-15-methyltetracyclo(8.7.0.0<2,7>0.0<11,15>)heptadeca-2,4,6-trien-8-ylidene)azamethoxy)acetate], the melting point was in the range of 85 to 90 °C. The IC50 in series [1] (setting [2]) is 5 to 12 µM.
On the same counts, the results for `CC(C)(S)CNC(=O)COc1ccc2c(c1)CC[C@@H]1[C@@H]2CC[C@]2(C)[C@@H](O)CC[C@@H]12` [Example 48, 2-((1S,11S,14S,15S,10R)-14-hydroxy-15-methyltetracyclo(8.7.0.0<2,7>0.0<11,15>)heptadeca-2,4,6-trien-5-yloxy)-N-(2-methyl-2-sulfanylpropyl)acetamide] are 50 to 52 °C and 11 µM.
`COc1ccc(C=C2c3ccccc3C(=NOCC(=O)NCC(C)(C)SN=O)c3ccccc32)cc1O` [Example 51, 2-((10-((3-Hydroxy-4-methoxyphenyl)methylene)(9-anthrylidene))-azamethoxy)-N-(2-methyl-2-(nitrosothio)propyl)acetamide] came in with a melting point of 143 to 145 °C. The IC50 in series [1] (setting [3]) was determined as 10 µM.
On the same counts, the results for `CC(C)(CNC(=O)CO/N=C1\C[C@@H]2[C@H](CC[C@]3(C)[C@@H](O)CC[C@@H]23)c2ccc(O)cc21)SN=O` [Example 41, 2-(((1S,11S,14S,15S,10R)-5,14-dihydroxy-15-methyltetracyclo(8.7.0.0<2,7>0.0<11,15>)heptadeca-2,4,6-trien-8-ylidene)azamethoxy)-N-(2-methyl-2-(nitrosothio)propyl)acetamide] are 145 to 150 °C and 10 µM.
Compound `COc1ccc(C=C2c3ccccc3C(=NO)c3ccccc32)cc1O` [Example 52, 5-((10-(Hydroxyimino)(9-anthrylidene))methyl)-2-methoxyphenol] displayed a melting point of 140 °C. Moreover, the IC50 in series [1] (setting [2]) came to 0.6 µM.
`C[C@]12CC[C@@H]3c4ccc(O)cc4/C(=N/OCC(=O)OCCC4(SN=O)C5CC6CC(C5)CC4C6)C[C@H]3[C@@H]1CC[C@@H]2O` (stereo partly drawn) [Example 37, 2-(2-(Nitrosothio)adamantan-2-yl)ethyl 2-(((1S,11S,14S,15S,10R)-5,14-dihydroxy-15-methyltetracyclo(8.7.0.0<2,7>0.0<11,15>)heptadeca-2,4,6-trien-8-ylidene)azamethoxy)acetate] had a melting point of 75 to 80 °C. For the same compound, the IC50 in series [1] (setting [3]) was in the range of 1.4 to 2 µM.
The like results for `C[C@]12CC[C@@H]3c4ccc(OC(=O)CCC(=O)O[C@H]5CO[C@H]6[C@@H]5OC[C@H]6O[N+](=O)[O-])cc4CC[C@H]3[C@@H]1CC[C@@H]2O` [Example 32b, (1S,11S,14S,15S,10R)-14-Hydroxy-15-methyltetracyclo(8.7.0.0<2,7>0.0<11,15>)heptadeca-2,4,6-trien-5-yl(1S,2S,5S,6R)-6-(nitrooxy)-4,8-dioxabicyclo(3.3.0)oct-2-yl butane-1,4-dioate] were, in that order, 163 to 165 °C and 8 µM.
